Test results reported in PubChem BioAssay AID330 (DTP/NCI, 2004).
Values joined by “and” are separate entries in the source; they are usually repeats but may differ in a detail not shown here. Equal values may be shown once. Inconclusive results and toxic doses are left out.

System: P388 leukemia ip, CD2F1 mice, survival T/C
Assay: NCI In Vivo Anticancer Drug Screen. Data for tumor model P388 Leukemia (intraperitoneal) in CD2F1 (CDF1) mice
Conditions: endpoint: median survival time, higher = longer survival
Method in brief: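 Mice carrying the transplanted tumor received test compound or vehicle. Survival was recorded in each group, and the value is the treated-group measurement divided by that of the vehicle-treated control group.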

[1] = dose: 50.0 mg/kg/injection, schedule: Q01DX009 (ip), vehicle: Klucel (hydroxypropylcellulose) (HPC)
[2] = dose: 100.0 mg/kg/injection, schedule: Q01DX009 (ip), vehicle: Klucel (hydroxypropylcellulose) (HPC)
[3] = dose: 200.0 mg/kg/injection, schedule: Q01DX009 (ip), vehicle: Klucel (hydroxypropylcellulose) (HPC)
[4] = dose: 240.0 mg/kg/injection, schedule: Q01DX005 (ip), vehicle: saline with Tween-80
[5] = dose: 50.0 mg/kg/injection, schedule: Q01DX009 (ip), vehicle: saline with Tween-80
[6] = dose: 100.0 mg/kg/injection, schedule: Q01DX009 (ip), vehicle: saline with Tween-80
[7] = dose: 200.0 mg/kg/injection, schedule: Q01DX009 (ip), vehicle: saline with Tween-80
[8] = dose: 50.0 mg/kg/injection, schedule: Q01DX005 (ip), vehicle: saline
[9] = dose: 100.0 mg/kg/injection, schedule: Q01DX005 (ip), vehicle: saline
[10] = dose: 200.0 mg/kg/injection, schedule: Q01DX005 (ip), vehicle: saline
[11] = dose: 60.0 mg/kg/injection, schedule: Q01DX005 (ip), vehicle: saline with Tween-80
[12] = dose: 120.0 mg/kg/injection, schedule: Q01DX005 (ip), vehicle: saline with Tween-80
[13] = dose: 50.0 mg/kg/injection, schedule: Q01DX005 (ip), vehicle: Klucel (hydroxypropylcellulose) (HPC)
[14] = dose: 100.0 mg/kg/injection, schedule: Q01DX005 (ip), vehicle: Klucel (hydroxypropylcellulose) (HPC)

## COCCOCCOCCOCCOCCOCCOCCOCCOCCOCCOCCOCCOCCOCCn1cc(F)c(=O)[nH]c1=O
dose: 100.0 mg/kg/injection, schedule: Q04DX002 (ip), vehicle: saline
  T/C: 100 % of control
dose: 200.0 mg/kg/injection, schedule: Q04DX002 (ip), vehicle: saline
  T/C: 101 % of control
dose: 400.0 mg/kg/injection, schedule: Q04DX002 (ip), vehicle: saline
  T/C: 104 % of control
dose: 800.0 mg/kg/injection, schedule: Q04DX002 (ip), vehicle: saline
  T/C: 100 % of control

## O=C(O)C(Cc1ccc(O)cc1)NSc1ccccc1[N+](=O)[O-] (centres undefined)
dose: 25.0 mg/kg/injection, schedule: Q01DX009 (ip), vehicle: water
  T/C: 111 % of control
dose: 50.0 mg/kg/injection, schedule: Q01DX009 (ip), vehicle: water
  T/C: 108 % of control
dose: 100.0 mg/kg/injection, schedule: Q01DX009 (ip), vehicle: water
  T/C: 104 % of control
dose: 200.0 mg/kg/injection, schedule: Q01DX009 (ip), vehicle: water
  T/C: 110 % of control

## CC(C)N=C1CCCC1C(=S)SSC(=S)C1CCCC1=NC(C)C (centres undefined)
[1]
  T/C: 99 % of control
[2]
  T/C: 99 % of control
[3]
  T/C: 100 % of control

## NS(=O)(=O)c1ccc(Nc2c3ccccc3nc3c([N+](=O)[O-])cccc23)cc1
dose: 15.0 mg/kg/injection, schedule: Q01DX005 (ip), vehicle: saline with Tween-80
  T/C: 97 % of control
dose: 30.0 mg/kg/injection, schedule: Q01DX005 (ip), vehicle: saline with Tween-80
  T/C: 90 % of control
[4]
  T/C: 88 % of control

## CC1(C)CCCc2c(-c3ccccc3)cc3c4ccccc4cc[n+]3c21
[5]
  T/C: 89 % of control
[6]
  T/C: 88 % of control

## [Mn]=[Se]
dose: 7.5 mg/kg/injection, schedule: Q01DX005 (ip), vehicle: other
  T/C: 101 % of control
dose: 15.0 mg/kg/injection, schedule: Q01DX005 (ip), vehicle: other
  T/C: 100 % of control and 103 % of control
dose: 30.0 mg/kg/injection, schedule: Q01DX005 (ip), vehicle: other
  T/C: 103 % of control and 94 % of control
dose: 60.0 mg/kg/injection, schedule: Q01DX005 (ip), vehicle: acid diluted with saline
  T/C: 110 % of control
dose: 60.0 mg/kg/injection, schedule: Q01DX005 (ip), vehicle: other
  T/C: 100 % of control

## CSC(=S)N/N=C\C(O)C(O)C(O)C(O)CO (centres undefined)
dose: 6.25 mg/kg/injection, schedule: Q04DX003 (ip), vehicle: saline
  T/C: 104 % of control
dose: 12.5 mg/kg/injection, schedule: Q04DX003 (ip), vehicle: saline
  T/C: 109 % of control
dose: 25.0 mg/kg/injection, schedule: Q04DX003 (ip), vehicle: saline
  T/C: 102 % of control

## C=CCC12C=C(OC)C(=O)C=C1OC(c1ccc3c(c1)OCO3)C2C (centres undefined)
dose: 16.25 mg/kg/injection, schedule: Q01DX005 (ip), vehicle: Klucel (hydroxypropylcellulose) (HPC)
  T/C: 104 % of control
dose: 32.5 mg/kg/injection, schedule: Q01DX005 (ip), vehicle: Klucel (hydroxypropylcellulose) (HPC)
  T/C: 104 % of control
dose: 65.0 mg/kg/injection, schedule: Q01DX005 (ip), vehicle: Klucel (hydroxypropylcellulose) (HPC)
  T/C: 94 % of control
dose: 130.0 mg/kg/injection, schedule: Q01DX005 (ip), vehicle: Klucel (hydroxypropylcellulose) (HPC)
  T/C: 94 % of control

## CCCCCCC1(/C=C\c2ccccc2)OCCO1
[5]
  T/C: 102 % of control
[6]
  T/C: 110 % of control
[7]
  T/C: 101 % of control

## Cc1nc2c(=O)nc3n(c2nc1C)CCS3
dose: 100.0 mg/kg/injection, schedule: Q01DX001 (ip), vehicle: saline
  T/C: 104 % of control
dose: 200.0 mg/kg/injection, schedule: Q01DX001 (ip), vehicle: saline
  T/C: 102 % of control
dose: 400.0 mg/kg/injection, schedule: Q01DX001 (ip), vehicle: saline
  T/C: 104 % of control

## CC1NC(=O)N(C(C)(C)C)C1=O (centres undefined)
dose: 50.0 mg/kg/injection, schedule: Q01DX005 (ip), vehicle: saline with Tween-80
  T/C: 111 % of control
[8]
  T/C: 101 % of control
dose: 100.0 mg/kg/injection, schedule: Q01DX005 (ip), vehicle: saline with Tween-80
  T/C: 111 % of control
[9]
  T/C: 100 % of control
dose: 200.0 mg/kg/injection, schedule: Q01DX005 (ip), vehicle: saline with Tween-80
  T/C: 120 % of control
[10]
  T/C: 102 % of control and 107 % of control

## COc1ccccc1NC(=O)N(CCCl)N=O
dose: 3.0 mg/kg/injection, schedule: Q04DX003 (ip), vehicle: saline with Tween-80
  T/C: 154 % of control
dose: 6.0 mg/kg/injection, schedule: Q04DX003 (ip), vehicle: saline with Tween-80
  T/C: 168 % of control
dose: 6.25 mg/kg/injection, schedule: Q01DX009 (ip), vehicle: saline with Tween-80
  T/C: 163 % of control
dose: 6.25 mg/kg/injection, schedule: Q04DX003 (ip), vehicle: saline with Tween-80
  T/C: 168 % of control
dose: 12.5 mg/kg/injection, schedule: Q01DX009 (ip), vehicle: saline with Tween-80
  T/C: 200 % of control
dose: 12.5 mg/kg/injection, schedule: Q04DX003 (ip), vehicle: saline with Tween-80
  T/C: 190 % of control
dose: 16.5 mg/kg/injection, schedule: Q04DX003 (ip), vehicle: saline with Tween-80
  T/C: 152 % of control
dose: 25.0 mg/kg/injection, schedule: Q01DX009 (ip), vehicle: saline with Tween-80
  T/C: 95 % of control
dose: 25.0 mg/kg/injection, schedule: Q04DX003 (ip), vehicle: saline with Tween-80
  T/C: 272 % of control
dose: 37.5 mg/kg/injection, schedule: Q04DX003 (ip), vehicle: saline with Tween-80
  T/C: 123 % of control

## O=C(CCC(=O)Nc1cc(Cl)ccc1Cl)CC(=O)c1ccc([N+](=O)[O-])cc1
[11]
  T/C: 98 % of control
[12]
  T/C: 100 % of control
[4]
  T/C: 109 % of control

## CCCCNC(C)C1(O)Cc2c(O)c3c(c(O)c2C(OC2CC(N)C(O)C(C)O2)C1)C(=O)c1c(OC)cccc1C3=O (centres undefined)
dose: 0.62 mg/kg/injection, schedule: Q01DX009 (ip), vehicle: water
  T/C: 111 % of control
dose: 10.0 mg/kg/injection, schedule: Q01DX009 (ip), vehicle: water
  T/C: 158 % of control and 161 % of control
dose: 20.0 mg/kg/injection, schedule: Q01DX009 (ip), vehicle: water
  T/C: 172 % of control and 181 % of control
dose: 40.0 mg/kg/injection, schedule: Q01DX009 (ip), vehicle: water
  T/C: 224 % of control
dose: 80.0 mg/kg/injection, schedule: Q01DX009 (ip), vehicle: water
  T/C: 218 % of control

## CCCCCCCN1CCS(=O)(=O)CC1
[1]
  T/C: 93 % of control
[2]
  T/C: 98 % of control
[3]
  T/C: 97 % of control

## COc1cc(/C=C/c2ccc3ccccc3n2)cc(OC)c1OC
dose: 50.0 mg/kg/injection, schedule: Q04DX003 (ip), vehicle: saline with Tween-80
  T/C: 100 % of control
[6]
  T/C: 86 % of control
dose: 100.0 mg/kg/injection, schedule: Q04DX003 (ip), vehicle: saline with Tween-80
  T/C: 100 % of control
[7]
  T/C: 90 % of control
dose: 200.0 mg/kg/injection, schedule: Q04DX003 (ip), vehicle: saline with Tween-80
  T/C: 100 % of control

## O=C(NCC(=O)N1CCCC1)N/N=C/c1ccccc1O
[13]
  T/C: 102 % of control
[14]
  T/C: 102 % of control
dose: 200.0 mg/kg/injection, schedule: Q01DX005 (ip), vehicle: Klucel (hydroxypropylcellulose) (HPC)
  T/C: 98 % of control

## O=S1(=O)c2ccccc2N(c2ccccc2)c2nnnn21
[11]
  T/C: 88 % of control
[12]
  T/C: 96 % of control
[4]
  T/C: 99 % of control

## C=C1COC(O)(C2OCOC(C3CC(=O)NC(=O)C3)C2O)C1C (centres undefined)
dose: 0.03 mg/kg/injection, schedule: Q01DX009 (ip), vehicle: water
  T/C: 107 % of control
dose: 2.0 micrograms/kg/injection, schedule: Q01DX009 (ip), vehicle: water
  T/C: 119 % of control
dose: 4.0 micrograms/kg/injection, schedule: Q01DX009 (ip), vehicle: water
  T/C: 119 % of control
dose: 7.5 micrograms/kg/injection, schedule: Q01DX009 (ip), vehicle: water
  T/C: 117 % of control
dose: 32.0 micrograms/kg/injection, schedule: Q01DX009 (ip), vehicle: water
  T/C: 181 % of control

## CCCCN(CCCC)CCNc1ccc(C)c2sc3cc(Cl)ccc3c(=O)c12
dose: 12.5 mg/kg/injection, schedule: Q01DX005 (ip), vehicle: Klucel (hydroxypropylcellulose) (HPC)
  T/C: 95 % of control
dose: 25.0 mg/kg/injection, schedule: Q01DX005 (ip), vehicle: Klucel (hydroxypropylcellulose) (HPC)
  T/C: 101 % of control
[13]
  T/C: 99 % of control and 101 % of control
[14]
  T/C: 96 % of control

## CC(C)NCC(O)c1ccc(O)c2ncccc12 (centres undefined)
[8]
  T/C: 100 % of control
[9]
  T/C: 100 % of control
[10]
  T/C: 101 % of control
